28 compounds from ChEMBL document CHEMBL4680228 (Eur J Med Chem, 2020) can be followed below.

Activity calls are given as the source filed them. No cut-off for these calls is given here.

The target of one experiment is von Hippel-Lindau disease tumor suppressor/ALK tyrosine kinase receptor/Nucleophosmin (Homo sapiens, UniProt Q9UM73+P06748+P40337). The experiment in a line: Protac activity at VHL/NPM-ALK fusion protein in human SR cells assessed as degradation of ALK. It counts as cell-based.
von Hippel-Lindau disease tumor suppressor/ALK tyrosine kinase receptor/Nucleophosmin, sequence (Q9UM73 whole entry, the tested form may be a part): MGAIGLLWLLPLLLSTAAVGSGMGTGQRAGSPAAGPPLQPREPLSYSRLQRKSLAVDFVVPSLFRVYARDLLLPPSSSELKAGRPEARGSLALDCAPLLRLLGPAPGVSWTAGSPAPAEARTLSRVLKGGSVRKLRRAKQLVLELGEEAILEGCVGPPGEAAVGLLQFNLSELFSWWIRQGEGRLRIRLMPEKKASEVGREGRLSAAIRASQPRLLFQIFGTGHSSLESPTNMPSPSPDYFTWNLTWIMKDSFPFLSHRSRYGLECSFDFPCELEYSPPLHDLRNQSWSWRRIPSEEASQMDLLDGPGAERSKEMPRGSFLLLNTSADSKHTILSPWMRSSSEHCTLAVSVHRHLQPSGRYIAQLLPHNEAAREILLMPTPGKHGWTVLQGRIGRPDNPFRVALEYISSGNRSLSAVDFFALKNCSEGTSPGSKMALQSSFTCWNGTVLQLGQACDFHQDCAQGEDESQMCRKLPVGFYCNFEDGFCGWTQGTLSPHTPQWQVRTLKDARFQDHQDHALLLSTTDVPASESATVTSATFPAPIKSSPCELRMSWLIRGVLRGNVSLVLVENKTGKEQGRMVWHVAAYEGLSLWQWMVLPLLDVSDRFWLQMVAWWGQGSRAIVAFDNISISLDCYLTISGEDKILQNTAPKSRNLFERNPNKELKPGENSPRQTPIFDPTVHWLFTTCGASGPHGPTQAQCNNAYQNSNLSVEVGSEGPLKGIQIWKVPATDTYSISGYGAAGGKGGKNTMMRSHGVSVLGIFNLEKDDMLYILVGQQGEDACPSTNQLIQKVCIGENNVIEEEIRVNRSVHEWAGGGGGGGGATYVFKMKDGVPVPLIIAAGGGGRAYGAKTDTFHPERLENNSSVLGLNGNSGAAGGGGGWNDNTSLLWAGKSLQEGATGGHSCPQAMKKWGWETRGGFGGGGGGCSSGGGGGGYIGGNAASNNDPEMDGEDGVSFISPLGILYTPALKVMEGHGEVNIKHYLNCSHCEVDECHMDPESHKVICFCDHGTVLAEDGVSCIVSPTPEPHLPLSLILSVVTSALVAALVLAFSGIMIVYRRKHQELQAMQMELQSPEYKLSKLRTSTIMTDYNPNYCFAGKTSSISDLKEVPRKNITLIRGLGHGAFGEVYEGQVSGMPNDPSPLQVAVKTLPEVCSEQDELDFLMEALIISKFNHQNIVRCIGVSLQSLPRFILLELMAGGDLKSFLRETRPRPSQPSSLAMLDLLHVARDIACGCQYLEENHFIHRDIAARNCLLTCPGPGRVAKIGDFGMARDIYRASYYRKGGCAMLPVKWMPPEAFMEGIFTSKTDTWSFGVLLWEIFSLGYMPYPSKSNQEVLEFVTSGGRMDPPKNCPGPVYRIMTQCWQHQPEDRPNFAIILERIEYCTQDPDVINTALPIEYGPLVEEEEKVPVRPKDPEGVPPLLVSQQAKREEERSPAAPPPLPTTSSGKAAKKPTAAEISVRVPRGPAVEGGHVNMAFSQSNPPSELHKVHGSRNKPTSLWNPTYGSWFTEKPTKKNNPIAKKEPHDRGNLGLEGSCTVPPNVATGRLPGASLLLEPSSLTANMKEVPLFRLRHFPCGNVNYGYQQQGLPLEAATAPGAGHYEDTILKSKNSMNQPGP
von Hippel-Lindau disease tumor suppressor/ALK tyrosine kinase receptor/Nucleophosmin, sequence (P06748 whole entry, the tested form may be a part): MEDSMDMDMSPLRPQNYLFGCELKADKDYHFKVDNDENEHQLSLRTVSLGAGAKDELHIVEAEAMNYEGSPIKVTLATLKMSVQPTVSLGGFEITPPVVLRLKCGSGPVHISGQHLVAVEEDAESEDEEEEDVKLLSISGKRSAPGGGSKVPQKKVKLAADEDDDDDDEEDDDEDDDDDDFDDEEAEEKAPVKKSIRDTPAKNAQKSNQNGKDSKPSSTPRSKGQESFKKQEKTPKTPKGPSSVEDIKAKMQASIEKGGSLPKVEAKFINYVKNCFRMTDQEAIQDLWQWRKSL
von Hippel-Lindau disease tumor suppressor/ALK tyrosine kinase receptor/Nucleophosmin, sequence (P40337 whole entry, the tested form may be a part): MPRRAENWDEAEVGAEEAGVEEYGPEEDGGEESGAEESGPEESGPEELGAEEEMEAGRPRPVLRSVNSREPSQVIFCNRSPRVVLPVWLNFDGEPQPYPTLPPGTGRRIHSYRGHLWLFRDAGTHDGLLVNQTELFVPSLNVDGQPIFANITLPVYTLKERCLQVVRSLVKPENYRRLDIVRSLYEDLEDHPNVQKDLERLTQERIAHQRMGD
Take `COc1cc(N2CCC(N3CCN(C(=O)CCCCCCCCC(=O)N[C@H](C(=O)N4C[C@H](O)C[C@H]4C(=O)NCc4ccc(-c5scnc5C)cc4)C(C)(C)C)CC3)CC2)ccc1Nc1ncc(Cl)c(Nc2ccccc2P(C)(C)=O)n1`: the DC50 (as a rule, the midpoint of the concentration-degradation curve) stood at 7.5 nM. On the same count and under the same terms, with `COc1cc(N2CCN(C(=O)CCCCCCCC(=O)N[C@H](C(=O)N3C[C@H](O)C[C@H]3C(=O)NCc3ccc(-c4scnc4C)cc3)C(C)(C)C)CC2)ccc1Nc1ncc(Cl)c(Nc2ccccc2P(C)(C)=O)n1` the figure was 15 nM; with `COc1cc(N2CCC(NC(=O)CCCCCCCCC(=O)N[C@H](C(=O)N3C[C@H](O)C[C@H]3C(=O)NCc3ccc(-c4scnc4C)cc3)C(C)(C)C)CC2)ccc1Nc1ncc(Cl)c(Nc2ccccc2P(C)(C)=O)n1`, 7.2 nM.

A further experiment has as its system SR. In words: Antiproliferative activity against human SR cells assessed as reduction in cell growth. The experiment is classed as functional, cell-based.
Regarding `COc1cc(N2CCC(N3CCN(C(=O)CCCCCCCCC(=O)N[C@H](C(=O)N4C[C@H](O)C[C@H]4C(=O)NCc4ccc(-c5scnc5C)cc4)C(C)(C)C)CC3)CC2)ccc1Nc1ncc(Cl)c(Nc2ccccc2P(C)(C)=O)n1`, the result was Active. As for `COc1cc(N2CCN(C(=O)CCOCCOCCOCCOCCC(=O)N[C@H](C(=O)N3C[C@H](O)C[C@H]3C(=O)NCc3ccc(-c4scnc4C)cc3)C(C)(C)C)CC2)ccc1Nc1ncc(Cl)c(Nc2ccccc2P(C)(C)=O)n1`, the result was inactive. The same measure, in the same setting: with `COc1cc(N2CCC(N3CCN(C(=O)CCCC(=O)N[C@H](C(=O)N4C[C@H](O)C[C@H]4C(=O)NCc4ccc(-c5scnc5C)cc4)C(C)(C)C)CC3)CC2)ccc1Nc1ncc(Cl)c(Nc2ccccc2P(C)(C)=O)n1` the entry was “Active”; with `COc1cc(N2CCN(C(=O)CCCCCCCC(=O)N[C@H](C(=O)N3C[C@H](O)C[C@H]3C(=O)NCc3ccc(-c4scnc4C)cc3)C(C)(C)C)CC2)ccc1Nc1ncc(Cl)c(Nc2ccccc2P(C)(C)=O)n1`, “Active”; with `COc1cc(N2CCC(N3CCN(C(=O)CCOCCOCCOCCOCCC(=O)N[C@H](C(=O)N4C[C@H](O)C[C@H]4C(=O)NCc4ccc(-c5scnc5C)cc4)C(C)(C)C)CC3)CC2)ccc1Nc1ncc(Cl)c(Nc2ccccc2P(C)(C)=O)n1`, “inactive”. For the compound `COc1cc(N2CCN(C(=O)CCOCCOCCOCCC(=O)N[C@H](C(=O)N3C[C@H](O)C[C@H]3C(=O)NCc3ccc(-c4scnc4C)cc3)C(C)(C)C)CC2)ccc1Nc1ncc(Cl)c(Nc2ccccc2P(C)(C)=O)n1`, the result was inactive. Still for that read-out and setting: with `COc1cc(N2CCC(NC(=O)CCC(=O)N[C@H](C(=O)N3C[C@H](O)C[C@H]3C(=O)NCc3ccc(-c4scnc4C)cc3)C(C)(C)C)CC2)ccc1Nc1ncc(Cl)c(Nc2ccccc2P(C)(C)=O)n1` the entry was “Active”; with `COc1cc(N2CCC(NC(=O)CCCC(=O)N[C@H](C(=O)N3C[C@H](O)C[C@H]3C(=O)NCc3ccc(-c4scnc4C)cc3)C(C)(C)C)CC2)ccc1Nc1ncc(Cl)c(Nc2ccccc2P(C)(C)=O)n1`, “Active”.

For `COc1cc(N2CCN(C(=O)CCOCCOCCOCCOCCOCCC(=O)N[C@H](C(=O)N3C[C@H](O)C[C@H]3C(=O)NCc3ccc(-c4scnc4C)cc3)C(C)(C)C)CC2)ccc1Nc1ncc(Cl)c(Nc2ccccc2P(C)(C)=O)n1`, the outcome was inactive. With `COc1cc(N2CCN(C(=O)CCCC(=O)N[C@H](C(=O)N3C[C@H](O)C[C@H]3C(=O)NCc3ccc(-c4scnc4C)cc3)C(C)(C)C)CC2)ccc1Nc1ncc(Cl)c(Nc2ccccc2P(C)(C)=O)n1`, the outcome was Active. On the same count and under the same terms, with `COc1cc(N2CCC(NC(=O)CCCCCCCCC(=O)N[C@H](C(=O)N3C[C@H](O)C[C@H]3C(=O)NCc3ccc(-c4scnc4C)cc3)C(C)(C)C)CC2)ccc1Nc1ncc(Cl)c(Nc2ccccc2P(C)(C)=O)n1` the entry was “Active”; with `COc1cc(N2CCC(N3CCN(C(=O)CCOCCOCCOCCOCCOCCC(=O)N[C@H](C(=O)N4C[C@H](O)C[C@H]4C(=O)NCc4ccc(-c5scnc5C)cc4)C(C)(C)C)CC3)CC2)ccc1Nc1ncc(Cl)c(Nc2ccccc2P(C)(C)=O)n1`, “inactive”. Still for that read-out and setting: with `COc1cc(N2CCC(NC(=O)CCCCCC(=O)N[C@H](C(=O)N3C[C@H](O)C[C@H]3C(=O)NCc3ccc(-c4scnc4C)cc3)C(C)(C)C)CC2)ccc1Nc1ncc(Cl)c(Nc2ccccc2P(C)(C)=O)n1` the entry was “Active”; with `COc1cc(N2CCC(N3CCN(C(=O)CCOCCOCCOCCC(=O)N[C@H](C(=O)N4C[C@H](O)C[C@H]4C(=O)NCc4ccc(-c5scnc5C)cc4)C(C)(C)C)CC3)CC2)ccc1Nc1ncc(Cl)c(Nc2ccccc2P(C)(C)=O)n1`, “inactive”.

In the case of `COc1cc(N2CCN(C(=O)CCOCCOCCC(=O)N[C@H](C(=O)N3C[C@H](O)C[C@H]3C(=O)NCc3ccc(-c4scnc4C)cc3)C(C)(C)C)CC2)ccc1Nc1ncc(Cl)c(Nc2ccccc2P(C)(C)=O)n1`, the outcome was inactive. `COc1cc(N2CCC(NC(=O)CCOCCOCCOCCOCCC(=O)N[C@H](C(=O)N3C[C@H](O)C[C@H]3C(=O)NCc3ccc(-c4scnc4C)cc3)C(C)(C)C)CC2)ccc1Nc1ncc(Cl)c(Nc2ccccc2P(C)(C)=O)n1`: the result was inactive.

In the case of `COc1cc(N2CCNCC2)ccc1Nc1ncc(Cl)c(Nc2ccccc2P(C)(C)=O)n1`, the IC50 – broadly, the concentration that inhibits the measured activity by half – came out at 1.6 nM. In the case of `COc1cc(N2CCN(C(=O)CCCCC(=O)N[C@H](C(=O)N3C[C@H](O)C[C@H]3C(=O)NCc3ccc(-c4scnc4C)cc3)C(C)(C)C)CC2)ccc1Nc1ncc(Cl)c(Nc2ccccc2P(C)(C)=O)n1`, the outcome was Active. For `COc1cc(N2CCN(C(=O)CCC(=O)N[C@H](C(=O)N3C[C@H](O)C[C@H]3C(=O)NCc3ccc(-c4scnc4C)cc3)C(C)(C)C)CC2)ccc1Nc1ncc(Cl)c(Nc2ccccc2P(C)(C)=O)n1`, the outcome was Active.

For `COc1cc(N2CCC(N3CCN(C(=O)CCCCCC(=O)N[C@H](C(=O)N4C[C@H](O)C[C@H]4C(=O)NCc4ccc(-c5scnc5C)cc4)C(C)(C)C)CC3)CC2)ccc1Nc1ncc(Cl)c(Nc2ccccc2P(C)(C)=O)n1`, the outcome was Active. The same measure, in the same setting: with `COc1cc(N2CCC(NC(=O)CCOCCOCCOCCC(=O)N[C@H](C(=O)N3C[C@H](O)C[C@H]3C(=O)NCc3ccc(-c4scnc4C)cc3)C(C)(C)C)CC2)ccc1Nc1ncc(Cl)c(Nc2ccccc2P(C)(C)=O)n1` the entry was “inactive”. As to `COc1cc(N2CCN(C(=O)CCCCCC(=O)N[C@H](C(=O)N3C[C@H](O)C[C@H]3C(=O)NCc3ccc(-c4scnc4C)cc3)C(C)(C)C)CC2)ccc1Nc1ncc(Cl)c(Nc2ccccc2P(C)(C)=O)n1`, the result was Active. The same measure, in the same setting: then `COc1cc(N2CCC(N3CCN(C(=O)CCC(=O)N[C@H](C(=O)N4C[C@H](O)C[C@H]4C(=O)NCc4ccc(-c5scnc5C)cc4)C(C)(C)C)CC3)CC2)ccc1Nc1ncc(Cl)c(Nc2ccccc2P(C)(C)=O)n1`, with “Active”; and `COc1cc(N2CCC(N3CCN(C(=O)CCCCC(=O)N[C@H](C(=O)N4C[C@H](O)C[C@H]4C(=O)NCc4ccc(-c5scnc5C)cc4)C(C)(C)C)CC3)CC2)ccc1Nc1ncc(Cl)c(Nc2ccccc2P(C)(C)=O)n1`, with “Active”; and `COc1cc(N2CCC(NC(=O)CCOCCOCCC(=O)N[C@H](C(=O)N3C[C@H](O)C[C@H]3C(=O)NCc3ccc(-c4scnc4C)cc3)C(C)(C)C)CC2)ccc1Nc1ncc(Cl)c(Nc2ccccc2P(C)(C)=O)n1`, with “inactive”. For `COc1cc(N2CCC(NC(=O)CCCCC(=O)N[C@H](C(=O)N3C[C@H](O)C[C@H]3C(=O)NCc3ccc(-c4scnc4C)cc3)C(C)(C)C)CC2)ccc1Nc1ncc(Cl)c(Nc2ccccc2P(C)(C)=O)n1`, the outcome was Active. Turning to `COc1cc(N2CCC(NC(=O)CCOCCOCCOCCOCCOCCC(=O)N[C@H](C(=O)N3C[C@H](O)C[C@H]3C(=O)NCc3ccc(-c4scnc4C)cc3)C(C)(C)C)CC2)ccc1Nc1ncc(Cl)c(Nc2ccccc2P(C)(C)=O)n1`, the outcome was inactive. `COc1cc(N2CCC(N3CCN(C(=O)CCOCCOCCC(=O)N[C@H](C(=O)N4C[C@H](O)C[C@H]4C(=O)NCc4ccc(-c5scnc5C)cc4)C(C)(C)C)CC3)CC2)ccc1Nc1ncc(Cl)c(Nc2ccccc2P(C)(C)=O)n1`: the result was inactive.
